# Data reported in article PMC9090415, “Discovery of small molecule inhibitors of Plasmodium falciparum apicoplast DNA polymerase” (Journal of Enzyme Inhibition and Medicinal Chemistry, 2022).
# Molecular target: P. falciparum apicoplast DNA polymerase (Pf-apPOL) (Plasmodium falciparum, UniProt Q8ILY1)
# Test: Fluorescence-based high-throughput DNA polymerase assay (molecular beacon), primary screen and dose-response
# Assay type: biochemical
# Conditions: for DNA Pol: unit not given, 90 min, 10 µM
# Method in brief: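 Single-point screening used 10 µM compound with 20 nM polymerase, 20 nM hairpin substrate and 6 µM dNTPs for 90 min at 25 °C. Confirmatory titrations (2.5–80 µM) followed fluorescence at three times, and IC50 was derived from a fit including a cooperativity term n.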
# [1] = 'DNA Pol' of the 186 hits list (primary screen result)
# [2] = DRC-2, 90', concentration 20 (unit not given)
# [3] = DRC-2, concentration 80 (unit not given)
# [4] = primary screen value of the library well
# P. falciparum apicoplast DNA polymerase (Pf-apPOL), sequence (Q8ILY1 entry or part of it): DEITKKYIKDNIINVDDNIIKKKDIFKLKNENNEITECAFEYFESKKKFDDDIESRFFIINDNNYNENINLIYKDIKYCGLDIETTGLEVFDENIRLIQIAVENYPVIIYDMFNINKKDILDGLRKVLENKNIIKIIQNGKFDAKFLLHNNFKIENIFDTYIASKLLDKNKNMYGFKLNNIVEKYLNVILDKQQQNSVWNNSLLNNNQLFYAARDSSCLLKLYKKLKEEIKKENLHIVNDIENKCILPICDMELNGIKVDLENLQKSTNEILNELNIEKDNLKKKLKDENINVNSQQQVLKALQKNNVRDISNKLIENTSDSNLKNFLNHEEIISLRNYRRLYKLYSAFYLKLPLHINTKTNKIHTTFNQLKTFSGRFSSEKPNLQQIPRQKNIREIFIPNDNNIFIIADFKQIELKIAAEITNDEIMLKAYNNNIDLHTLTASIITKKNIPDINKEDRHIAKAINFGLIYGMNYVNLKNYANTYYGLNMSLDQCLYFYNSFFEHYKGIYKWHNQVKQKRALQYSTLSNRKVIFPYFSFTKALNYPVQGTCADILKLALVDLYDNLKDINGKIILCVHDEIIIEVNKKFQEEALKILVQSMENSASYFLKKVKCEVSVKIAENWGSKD
structure (smiles),measurement,setting,value
"CCOc1ccc(/C=C2\N=C(c3cc([N+](=O)[O-])cc([N+](=O)[O-])c3)OC2=O)cc1 [Molecule 97, CCOc1ccc(cc1)/C=C/1\N=C(OC1=O)c1cc(cc(c1)N(=O)=O)N(=O)=O]",DNA Pol,[1],62
same,% inhibition Apo pol 10',"DRC-1, concentration 2.5",32.0109%
same,% inhibition Apo pol 10',"DRC-1, concentration 5",55.2757%
same,% inhibition Apo pol 10',"DRC-1, concentration 10",83.2599%
same,% inhibition Apo pol 10',"DRC-1, concentration 20",91.8438%
same,% inhibition Apo pol 10',"DRC-1, concentration 40",94.8761%
same,% inhibition Apo pol 10',"DRC-1, concentration 80",92.0577%
same,% inhibition Apol 90',"DRC-1, 90', concentration 2.5",15.0386%
same,% inhibition Apol 90',"DRC-1, 90', concentration 5",31.639%
same,% inhibition Apol 90',"DRC-1, 90', concentration 10",61.0945%
same,% inhibition Apol 90',"DRC-1, 90', concentration 20",80.2984%
same,% inhibition Apol 90',"DRC-1, 90', concentration 40",94.8535%
same,% inhibition Apol 90',"DRC-1, 90', concentration 80",94.5175%
same,% inhibition apPOL 180',"DRC-1, 180', concentration 2.5",6.537%
same,% inhibition apPOL 180',"DRC-1, 180', concentration 5",16.2109%
same,% inhibition apPOL 180',"DRC-1, 180', concentration 10",41.6227%
same,% inhibition apPOL 180',"DRC-1, 180', concentration 20",66.1189%
same,% inhibition apPOL 180',"DRC-1, 180', concentration 40",93.496%
same,% inhibition apPOL 180',"DRC-1, 180', concentration 80",95.7221%
same,% inhibition Apol 40',"DRC-2, 40', concentration 20 (unit not given)",68%
same,% inhibition Apol 40',"DRC-2, 40', concentration 40 (unit not given)",76%
same,% inhibition Apol 40',"DRC-2, 40', concentration 80 (unit not given)",76%
same,% inhibition ApPOL 90',[2],68%
same,% inhibition apPOL 180',"DRC-2, 180', concentration 20 (unit not given)",60%
same,% inhibition Apo pol 5',"DRC-2, concentration 2.5",20%
same,% inhibition Apo pol 5',"DRC-2, concentration 5",43%
same,% inhibition Apo pol 5',"DRC-2, concentration 10",52%
same,% inhibition Apo pol 5',"DRC-2, concentration 20",59%
same,% inhibition Apo pol 5',"DRC-2, concentration 40",61%
same,% inhibition Apo pol 5',"DRC-2, concentration 80",60%
same,% inhibition Apo pol 5',[3],60%
same,% inhibition Apol 40',"DRC-2, 40', concentration 2.5",14%
same,% inhibition Apol 40',"DRC-2, 40', concentration 5",38%
same,% inhibition Apol 40',"DRC-2, 40', concentration 10",47%
same,% inhibition Apol 40',"DRC-2, 40', concentration 20",68%
same,% inhibition Apol 40',"DRC-2, 40', concentration 40",76%
same,% inhibition Apol 40',"DRC-2, 40', concentration 80",76%
same,% inhibition ApPOL 90',"DRC-2, 90', concentration 2.5",9%
same,% inhibition ApPOL 90',"DRC-2, 90', concentration 5",33%
same,% inhibition ApPOL 90',"DRC-2, 90', concentration 10",42%
same,% inhibition ApPOL 90',"DRC-2, 90', concentration 20",68%
same,% inhibition ApPOL 90',"DRC-2, 90', concentration 40",79%
same,% inhibition ApPOL 90',"DRC-2, 90', concentration 80",80%
same,% inhibition apPOL 180',"DRC-2, 180', concentration 2.5",2.15%
same,% inhibition apPOL 180',"DRC-2, 180', concentration 5",19%
same,% inhibition apPOL 180',"DRC-2, 180', concentration 10",28%
same,% inhibition apPOL 180',"DRC-2, 180', concentration 20",60%
same,% inhibition apPOL 180',"DRC-2, 180', concentration 40",81%
same,% inhibition apPOL 180',"DRC-2, 180', concentration 80",84%
same,DNA Pol,[4],62
CCOc1ccc(/C=C2\N=C(c3cc([N+](=O)[O-])cc([N+](=O)[O-])c3)OC2=O)cc1 [Molecule 97],IC50,"supplemental file 2, sheet IC50 nontoxic compounds, Pf-apPOL",4.47 µM
"CC(C)(C)c1cc(C(=O)C(C#N)=NNc2cccc(Cl)c2)no1 [Molecule 98, N#CC(=NNc1cccc(c1)Cl)C(=O)c1noc(c1)C(C)(C)C]",DNA Pol,[1],96
same,% inhibition Apo pol 10',"DRC-1, concentration 2.5",10.7073%
same,% inhibition Apo pol 10',"DRC-1, concentration 5",31.7551%
same,% inhibition Apo pol 10',"DRC-1, concentration 10",51.803%
same,% inhibition Apo pol 10',"DRC-1, concentration 20",87.204%
same,% inhibition Apo pol 10',"DRC-1, concentration 40",82.704%
same,% inhibition Apo pol 10',"DRC-1, concentration 80",96.4114%
same,% inhibition Apol 90',"DRC-1, 90', concentration 2.5",12.918%
same,% inhibition Apol 90',"DRC-1, 90', concentration 5",31.5705%
same,% inhibition Apol 90',"DRC-1, 90', concentration 10",54.1185%
same,% inhibition Apol 90',"DRC-1, 90', concentration 20",87.0322%
same,% inhibition Apol 90',"DRC-1, 90', concentration 40",80.829%
same,% inhibition Apol 90',"DRC-1, 90', concentration 80",96.7924%
same,% inhibition apPOL 180',"DRC-1, 180', concentration 2.5",9.726%
same,% inhibition apPOL 180',"DRC-1, 180', concentration 5",23.8574%
same,% inhibition apPOL 180',"DRC-1, 180', concentration 10",46.8466%
same,% inhibition apPOL 180',"DRC-1, 180', concentration 20",85.1856%
same,% inhibition apPOL 180',"DRC-1, 180', concentration 40",79.4059%
same,% inhibition apPOL 180',"DRC-1, 180', concentration 80",96.5379%
same,% inhibition ApPOL 90',[2],61%
same,% inhibition Apo pol 5',"DRC-2, concentration 2.5",8%
same,% inhibition Apo pol 5',"DRC-2, concentration 5",18%
same,% inhibition Apo pol 5',"DRC-2, concentration 10",30%
same,% inhibition Apo pol 5',"DRC-2, concentration 20",47%
same,% inhibition Apo pol 5',"DRC-2, concentration 40",46%
same,% inhibition Apo pol 5',"DRC-2, concentration 80",61%
same,% inhibition Apo pol 5',[3],61%
same,% inhibition Apol 40',"DRC-2, 40', concentration 2.5",10%
same,% inhibition Apol 40',"DRC-2, 40', concentration 5",24%
same,% inhibition Apol 40',"DRC-2, 40', concentration 10",40%
same,% inhibition Apol 40',"DRC-2, 40', concentration 20",60%
same,% inhibition Apol 40',"DRC-2, 40', concentration 40",56%
same,% inhibition Apol 40',"DRC-2, 40', concentration 80",76%
same,% inhibition ApPOL 90',"DRC-2, 90', concentration 2.5",8.47%
same,% inhibition ApPOL 90',"DRC-2, 90', concentration 5",21%
same,% inhibition ApPOL 90',"DRC-2, 90', concentration 10",39%
same,% inhibition ApPOL 90',"DRC-2, 90', concentration 20",61%
same,% inhibition ApPOL 90',"DRC-2, 90', concentration 40",58%
same,% inhibition ApPOL 90',"DRC-2, 90', concentration 80",79%
same,% inhibition apPOL 180',"DRC-2, 180', concentration 2.5",2.49%
same,% inhibition apPOL 180',"DRC-2, 180', concentration 5",14%
same,% inhibition apPOL 180',"DRC-2, 180', concentration 10",31%
same,% inhibition apPOL 180',"DRC-2, 180', concentration 20",57%
same,% inhibition apPOL 180',"DRC-2, 180', concentration 40",55%
same,% inhibition apPOL 180',"DRC-2, 180', concentration 80",81%
same,DNA Pol,[4],96
